Results reported in ChEMBL document CHEMBL6134810, “Novel Hypochlorous Acid-Activated Near-Infrared Probe Monitors the Dynamic Changes of Myeloperoxidase Activity in Ischemic Brain” (J Med Chem, 2025).
Active and inactive are the calls of the source. The rule behind the calls is not given here.

Legend:
HT-22 [1] = test: Cytotoxicity against mouse HT-22 cells assessed as cell viability at 20 uM incubated for 24 hrs by CCK-8 method; type: functional, cell-based
HT-22 [2] = test: Cytotoxicity against mouse HT-22 cells assessed as cell viability at 50 uM incubated for 24 hrs by CCK-8 method; type: functional, cell-based
Myeloperoxidase = molecular target: T1, Myeloperoxidase (Homo sapiens, UniProt P05164); test: (§1) Binding affinity to MPO (unknown origin) assessed as dissociation constant by ITC analysis
T1 sequence (P05164 whole entry): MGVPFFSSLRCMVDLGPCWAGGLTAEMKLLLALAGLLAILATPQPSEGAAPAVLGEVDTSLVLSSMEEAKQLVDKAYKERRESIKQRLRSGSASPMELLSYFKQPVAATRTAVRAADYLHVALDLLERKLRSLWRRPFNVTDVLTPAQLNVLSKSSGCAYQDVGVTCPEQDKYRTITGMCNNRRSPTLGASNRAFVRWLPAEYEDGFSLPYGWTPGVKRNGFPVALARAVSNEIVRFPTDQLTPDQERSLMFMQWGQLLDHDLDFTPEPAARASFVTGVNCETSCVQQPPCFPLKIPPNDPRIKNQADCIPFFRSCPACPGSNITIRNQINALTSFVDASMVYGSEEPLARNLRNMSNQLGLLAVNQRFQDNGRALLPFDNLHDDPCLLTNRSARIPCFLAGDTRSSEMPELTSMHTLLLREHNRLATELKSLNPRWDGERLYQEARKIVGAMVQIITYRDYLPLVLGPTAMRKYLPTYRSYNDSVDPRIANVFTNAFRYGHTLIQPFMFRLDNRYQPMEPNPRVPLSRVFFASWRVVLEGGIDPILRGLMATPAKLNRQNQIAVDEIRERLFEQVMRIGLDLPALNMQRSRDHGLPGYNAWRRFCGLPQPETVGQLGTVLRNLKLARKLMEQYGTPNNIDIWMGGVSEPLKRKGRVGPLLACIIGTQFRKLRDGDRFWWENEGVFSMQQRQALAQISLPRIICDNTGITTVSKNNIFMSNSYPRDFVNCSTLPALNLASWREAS

[3] = molecular target: T2, Myeloperoxidase (Homo sapiens) (UniProt P05164); test: Binding affinity to MPO (unknown origin) assessed as change in enthalpy by ITC analysis
T2 sequence (whole entry): T1 sequence (P05164 whole entry)

[4] = molecular target: T2, Myeloperoxidase (Homo sapiens); test: Induction of thermal stabilization of MPO (unknown origin) at 10 uM by CESTA analysis
[5] = Drug uptake in human HeLa cells at 10 uM measured after 30 mins by Hoechst staining based confocal microscopic analysis; type: ADME, cell-based; details: 0.5 h
[6] = Drug uptake in human HeLa cells assessed as increase in red fluorescence at 10 uM measured after 30 mins in presence of HClO by Hoechst staining based confocal microscopic analysis; type: ADME, cell-based; details: 0.5 h
[7] = Drug uptake in human HeLa cells assessed as increase in red fluorescence at 10 uM measured within 40 mins in presence of HClO by Hoechst staining based confocal microscopic analysis; type: ADME, cell-based
[8] = Drug uptake in IFN-gamma treated human Neutrophil cells assessed as increase in fluorescence at 10 uM measured after 30 mins by Hoechst staining based confocal microscopic analysis; type: ADME, cell-based; details: 0.5 h
Mus musculus [9] = test: Protection against photo thrombotic stroke induced cerebral ischemia in male C57BL/6 mouse model assessed as MPO secretion in brain at 1 mg/kg, iv by Ly6G staining based confocal microscopy based analysis; type: functional, organism-based
[10] = molecular target: T2, Myeloperoxidase (Homo sapiens); test: Inhibition of MPO in HEK293T cells harbouring MPO-ZsGreen assessed as decrease in red fluorescence intensity at 10 uM preincubated with MPO-IN-28 for 4 hrs followed by compound addition and measured after 30 mins by fluorescence imaging based confocal microscopy analysis; type: cell-based
[11] = molecular target: T2, Myeloperoxidase (Homo sapiens); test: Inhibition of MPO in HEK293T cells harbouring MPO-ZsGreen assessed as decrease in red fluorescence intensity at 10 uM preincubated with AZD5904 for 4 hrs followed by compound addition and measured after 30 mins by fluorescence imaging based confocal microscopy analysis; type: cell-based
[12] = molecular target: T2, Myeloperoxidase (Homo sapiens); test: Inhibition of MPO in human HL-60 cells harbouring MPO-ZsGreen assessed as decrease in red fluorescence intensity at 10 uM preincubated with MPO-IN-28 for 2 hrs followed by compound addition and measured after 30 mins by fluorescence imaging based confocal microscopy analysis; type: cell-based
[13] = molecular target: T2, Myeloperoxidase (Homo sapiens); test: Inhibition of MPO in human HL-60 cells harbouring MPO-ZsGreen assessed as decrease in red fluorescence intensity at 10 uM preincubated with AZD5904 for 2 hrs followed by compound addition and measured after 30 mins by fluorescence imaging based confocal microscopy analysis; type: cell-based
[14] = molecular target: T2, Myeloperoxidase (Homo sapiens); test: Inhibition of MPO in HEK293T cells harbouring MPO-ZsGreen assessed as decrease in red fluorescence intensity at 10 uM preincubated with ZL-006 for 4 hrs followed by compound addition and measured after 30 mins by fluorescence imaging based confocal microscopy analysis; type: cell-based
[15] = molecular target: T2, Myeloperoxidase (Homo sapiens); test: Inhibition of MPO in HEK293T cells harbouring MPO-ZsGreen assessed as decrease in red fluorescence intensity at 10 uM preincubated with ZL-002 for 4 hrs followed by compound addition and measured after 30 mins by fluorescence imaging based confocal microscopy analysis; type: cell-based
[16] = molecular target: T2, Myeloperoxidase (Homo sapiens); test: Inhibition of MPO in HEK293T cells harbouring MPO-ZsGreen assessed as decrease in red fluorescence intensity at 10 uM preincubated with edaravone for 4 hrs followed by compound addition and measured after 30 mins by fluorescence imaging based confocal microscopy analysis; type: cell-based
Brain [17] = test: (§2) Ex vivo protection against photo thrombotic stroke induced cerebral ischemia in male C57BL/6 mouse brain assessed as decrease in MPO induced HClO fluorescence signal in cortex at 10 uM preincubated with MPO-IN-28 for 1 hr followed by compound addition and measured after 30 mins by fluorescence imaging based confocal microscopy analysis; type: functional, tissue-based
Brain [18] = test: as §2, with “AZD5904” for “MPO-IN-28”; type: functional, tissue-based
Mus musculus [19] = species on record: Mus musculus; test: Protection against photo thrombotic stroke induced cerebral ischemia in male C57BL/6 mouse model assessed as decrease in fluorescence response in brain cortex preincubated with AZD5904 for 18 consecutive days followed by induction of stoke for 3 days and measured after 7 days by Ly6G staining based confocal microscopy based analysis; type: functional, organism-based; details: time 7.0 day
[20] = molecular target: T2, Myeloperoxidase (Homo sapiens); test: as §1
Mus musculus [21] = test: Protection against photo thrombotic stroke induced cerebral ischemia in male C57BL/6 mouse model assessed as inhibition of MPO activity in brain at 40 mg/kg, IG preincubated for 18 consecutive days followed by induction of stoke for 3 days and measured after 7 days; type: functional, organism-based; details: time 28.0 day
Mus musculus [22] = test: Protection against photo thrombotic stroke induced cerebral ischemia in male C57BL/6 mouse model assessed as decrease in infarct size at 40 mg/kg, IG preincubated for 18 consecutive days followed by induction of stoke for 3 days and measured after 5 days by TTC staining based analysis; type: functional, organism-based; details: time 26.0 day
Mus musculus [23] = test: Protection against photo thrombotic stroke induced cerebral ischemia in male C57BL/6 mouse model assessed as effect on body weight at 40 mg/kg, IG preincubated for 18 consecutive days followed by induction of stoke for 3 days and measured after 5 days by TTC staining based analysis; type: functional, organism-based; details: time 26.0 day
Mus musculus [24] = test: Protection against photo thrombotic stroke induced cerebral ischemia in male C57BL/6 mouse model assessed as amelioration of foot fault in forelimb at 40 mg/kg, IG preincubated for 18 consecutive days followed by induction of stoke for 3 days and measured after 5 to 15 days by foot fault test; type: functional, organism-based; details: time 26-36 day
Mus musculus [25] = test: Protection against photo thrombotic stroke induced cerebral ischemia in male C57BL/6 mouse model assessed as amelioration of foot fault in hindlimb at 40 mg/kg, IG preincubated for 18 consecutive days followed by induction of stoke for 3 days and measured after 5 to 15 days by foot fault test; type: functional, organism-based; details: time 26-36 day
Mus musculus [26] = test: Protection against photo thrombotic stroke induced cerebral ischemia in male C57BL/6 mouse model assessed as decrease in asymmetry index at 40 mg/kg, IG preincubated for 18 consecutive days followed by induction of stoke for 3 days and measured after 10 to 15 days by foot fault test; type: functional, organism-based; details: time 31-36 day
Mus musculus [27] = species on record: Mus musculus; test: Protection against photo thrombotic stroke induced cerebral ischemic male C57 mouse model assessed as reduction in number neutrophils measured after 7 days; type: functional, organism-based; details: time 7.0 day
Mus musculus [28] = species on record: Mus musculus; test: Protection against photo thrombotic stroke induced cerebral ischemic male C57 mouse model assessed as improvement in sensory motor dysfunction measured after 5 days by rotarod test; type: functional, organism-based; details: time 5.0 day
Mus musculus [29] = species on record: Mus musculus; test: Protection against photo thrombotic stroke induced cerebral ischemic male C57 mouse model assessed as improvement in sensory motor dysfunction measured after 5 days by foot fault test; type: functional, organism-based; details: time 5.0 day

In the case of `CN(C)c1ccc2c(c1)[Si](C)(C)c1cc(N(C)C)ccc1C21c2ccccc2C(=O)N1NC(=S)NCCc1c[nH]c2ccc(O)cc12`, the Activity (HT-22 [1]) is reported as “Active”.

For `COc1ccc2[nH]cc(CCNC(=S)NN3C(=O)c4ccccc4C34c3ccc(N(C)C)cc3[Si](C)(C)c3cc(N(C)C)ccc34)c2c1`, the Activity (HT-22 [2]) was “Active; Compound Showed Little Toxicity”, the Kd (Myeloperoxidase) was 11.6 µM and the deltaH [3] was 2.39 kcal/mol. For the same compound, the Activity [4] was “Active”, the Drug uptake [5] was “Not_active” and the Drug uptake [6] was “Active”. The Drug uptake [7] was “Not_active”, the Drug uptake [8] was “Active” and the Activity (Mus musculus [9]) was “Active”. For the same compound, the inhibition [10] was “Active”, the inhibition [11] was “Active” and the inhibition [12] was “Active”. The inhibition [13] was “Active”, the inhibition [14] was “Active” and the inhibition [15] was “inactive”. For the same compound, the inhibition [16] was “inactive”, the Activity (Brain [17]) was “Active” and the Activity (Brain [18]) was “Active”. The Activity (Mus musculus [19]) was “Active”.

For `CCNc1cc2[o+]c3cc(NCC)c(C)cc3c(-c3ccccc3C(=O)OCC)c2cc1C`, the Activity [20] was “inactive” and the Activity [3] was “inactive”.

For `O=c1[nH]c(=S)n(C[C@H]2CCCO2)c2nc[nH]c12`, the Activity (Mus musculus [21]) was “Active”, the Activity (Mus musculus [22]) was “Active” and the Activity (Mus musculus [23]) was “Active”. The Activity (Mus musculus [24]) was “Active”, the Activity (Mus musculus [25]) was “Active” and the Activity (Mus musculus [26]) was “Active”.

In the case of `CC1=NN(c2ccccc2)C(=O)C1`, the Activity (Mus musculus [27]) is reported as “inactive”, the Activity (Mus musculus [28]) is reported as “inactive” and the Activity (Mus musculus [29]) is reported as “inactive”.
